Assay results reported in patent US20160213684A1, “SOLID DISPERSION OF A SELECTIVE MODULATOR OF THE PROGESTERONE RECEPTOR” (LABORATOIRE HRA-PHARMA, priority 2012, published 2016).

Experiments:
[1] = test system: uterine fibromas; settings: chronic administration, 5 mg or 10 mg per day; cited from earlier work
[2] = single dose of 30 mg, within 120 hours following unprotected or poorly protected sexual intercourse; cited from earlier work
[3] = in vitro dissolution test (paddle dissolution device, hard gelatin capsule with 30 mg UPA); format: physicochemical; settings: for Percentages of UPA released, expressed relative to the initial amount of UPA contained per capsule: 900 ml medium at gastric pH, 0.1% SDS, 37°C, 50 rpm, mean of 3 experiments
Protocol: The in vitro dissolution test can be carried out using any commercially available dissolution device comprising paddles. Example 1 hereinafter presents implementing conditions for determining the in vitro dissolution rate of a solid dispersion according to the invention. Briefly, an amount of solid dispersion representing 30 mg of active ingredient is placed in a gelatin capsule. This gel capsule is then placed in 900 ml of a medium buffered at gastric pH, comprising 0.1% of SDS, at 37±0.5° C., and subjected to stirring at 50 revolutions per minute (rpm) (speed of rotation of the paddles of the dissolution device). The dissolution of the active ingredient in the medium can be monitored by spectrophotometry, preferably at the maximum wavelength of absorbance. A gastric pH is typically a pH of 1 to 3.
For each solid dispersion obtained by means of the “solvent evaporation” method (§1.b) above), hard gelatin capsules containing an amount of solid dispersion corresponding to 30 mg of UPA per capsule were prepared.
The dissolution profiles were obtained as follows:
Each capsule containing a solid dispersion was placed in a bowl of the paddle dissolution device containing 900 ml of a dissolution medium. The dissolution medium is an aqueous solution buffered at gastric pH and comprising 0.1% by weight of SDS. The conditions for carrying out the in vitro dissolutions are the following: • Paddle rotation speed: 50 revolutions per minute (rpm); • Temperature: 37° C.±0.5° C.
The dissolution of the UPA was monitored by spectrophotometry.
By way of control experiment, a gelatin capsule containing 30 mg of micronized ulipristal acetate was used. For each solid dispersion evaluated, the dissolution experiment was reproduced 3 times.

CC(=O)O[C@]1(C(C)=O)CCC2C3CCC4=CC(=O)CCC4=C3[C@@H](c3ccc(N(C)C)cc3)C[C@@]21C (stereo partly drawn) [Micronized UPA, 17α-acetoxy-11β-[4-(N,N-dimethylamino)phenyl]-19-norpregna-4,9-diene-3,20-dione]
symptoms associated with uterine fibromas [1]: significantly reduce the symptoms associated with uterine fibromas
therapeutic benefit versus the reference treatment leuprolide acetate [1]: greater than that of the reference treatment
prevention of unwanted pregnancy [2]: makes it possible to prevent an unwanted pregnancy
percentage of ulipristal acetate released into the medium ([3]; t=20 min as stated in the text, capsule): approximately 42%
Percentages of UPA released, expressed relative to the initial amount of UPA contained per capsule ([3]; time 0 min): 0%
Percentages of UPA released, expressed relative to the initial amount of UPA contained per capsule ([3]; time 1 min): 0.23%
Percentages of UPA released, expressed relative to the initial amount of UPA contained per capsule ([3]; time 5 min): 5.69%
Percentages of UPA released, expressed relative to the initial amount of UPA contained per capsule ([3]; time 7.5 min): 15.28%
Percentages of UPA released, expressed relative to the initial amount of UPA contained per capsule ([3]; time 10 min): 21.73%
Percentages of UPA released, expressed relative to the initial amount of UPA contained per capsule ([3]; time 15 min): 29.46%
Percentages of UPA released, expressed relative to the initial amount of UPA contained per capsule ([3]; time 20 min): 35.2%
Percentages of UPA released, expressed relative to the initial amount of UPA contained per capsule ([3]; time 30 min): 42.14%
Percentages of UPA released, expressed relative to the initial amount of UPA contained per capsule ([3]; time 45 min): 49.98%
Percentages of UPA released, expressed relative to the initial amount of UPA contained per capsule ([3]; time 60 min): 55.62%
